Data as given in PubChem BioAssay AID1963963 (Molecular Pharmacology Branch, DTP, NCI, 2024).
Each block holds one molecule with its values, some of them ahead of it.

System: 958667-338-R-J2-PDC tumor spheroids viability
Assay: Anticancer human tumor 958667-338-R-J2-PDC patient-derived colon adenocarcinoma cell line growth inhibition [PI3K]
Conditions: spheroids with HUVEC and MSC; for IC50: curve of first compound; for viability, T/C: stronger effect = lower value
Summary of the method: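 Viability of mixed-cell spheroids was determined after exposure to pairwise combinations, one partner being inavolisib, alpelisib, duvelisib or copanlisib. Highest tested concentration matched clinical Cmax where known and 10 microM where not, descending in half-log steps.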

[1] = second compound 0.00316 µM, first compound 0.0316 µM
[2] = second compound 0.00316 µM, first compound 0.1 µM
[3] = second compound 0.00316 µM, first compound 0.316 µM
[4] = second compound 0.00316 µM, first compound 1 µM
[5] = second compound 0.00316 µM, first compound 3.16 µM
[6] = second compound 0.00316 µM, first compound 10 µM
[7] = second compound 0.01 µM, first compound 0.0316 µM
[8] = second compound 0.01 µM, first compound 0.1 µM
[9] = second compound 0.01 µM, first compound 0.316 µM
[10] = second compound 0.01 µM, first compound 1 µM
[11] = second compound 0.01 µM, first compound 3.16 µM
[12] = second compound 0.01 µM, first compound 10 µM
[13] = second compound 0.0316 µM, first compound 0.0316 µM
[14] = second compound 0.0316 µM, first compound 0.1 µM
[15] = second compound 0.0316 µM, first compound 0.316 µM
[16] = second compound 0.0316 µM, first compound 1 µM
[17] = second compound 0.0316 µM, first compound 3.16 µM
[18] = second compound 0.0316 µM, first compound 10 µM
[19] = second compound 0.1 µM, first compound 0.0316 µM
[20] = second compound 0.1 µM, first compound 0.1 µM
[21] = second compound 0.1 µM, first compound 0.316 µM
[22] = second compound 0.1 µM, first compound 1 µM
[23] = second compound 0.1 µM, first compound 3.16 µM
[24] = second compound 0.1 µM, first compound 10 µM
[25] = second compound 0.316 µM, first compound 0.0316 µM
[26] = second compound 0.316 µM, first compound 0.1 µM
[27] = second compound 0.316 µM, first compound 0.316 µM
[28] = second compound 0.316 µM, first compound 1 µM
[29] = second compound 0.316 µM, first compound 3.16 µM
[30] = second compound 0.316 µM, first compound 10 µM
[31] = second compound 1 µM, first compound 0.0316 µM
[32] = second compound 1 µM, first compound 0.1 µM
[33] = second compound 1 µM, first compound 0.316 µM
[34] = second compound 1 µM, first compound 1 µM
[35] = second compound 1 µM, first compound 3.16 µM
[36] = second compound 1 µM, first compound 10 µM
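Note: spheroids exposed to compounds for seven days before readout.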

IC50 (second compound 0.00316 µM): > 10 µM
IC50 (second compound 0.01 µM): > 10 µM
IC50 (second compound 0.0316 µM): 8.56 µM
IC50 (second compound 0.1 µM): 6.62 µM
IC50 (second compound 0.316 µM): 3.47 µM
IC50 (second compound 1 µM): 1.4 µM
Structure (SMILES): C#Cc1c(F)ccc2cc(O)cc(-c3ncc4c(N5CC6CCC(C5)N6)nc(OCC56CCCN5CC(F)C6)nc4c3F)c12 (stereo unspecified) + CC(Nc1ccc2c(c1)OCCn1cc(N3C(=O)OCC3C(F)F)nc1-2)C(N)=O
viability, T/C [1]: 95.2%
viability, T/C [2]: 97.9%
viability, T/C [3]: 110%
viability, T/C [4]: 90.9%
viability, T/C [5]: 90.6%
viability, T/C [6]: 60.7%
viability, T/C [7]: 101%
viability, T/C [8]: 120%
viability, T/C [9]: 121%
viability, T/C [10]: 97.3%
viability, T/C [11]: 74.2%
viability, T/C [12]: 74.2%
viability, T/C [13]: 99.9%
viability, T/C [14]: 109%
viability, T/C [15]: 100%
viability, T/C [16]: 118%
viability, T/C [17]: 83.1%
viability, T/C [18]: 44.8%
viability, T/C [19]: 69.2%
viability, T/C [20]: 81%
viability, T/C [21]: 77.4%
viability, T/C [22]: 84.1%
viability, T/C [23]: 71.4%
viability, T/C [24]: 37.2%
viability, T/C [25]: 69.1%
viability, T/C [26]: 62%
viability, T/C [27]: 66.7%
viability, T/C [28]: 85.6%
viability, T/C [29]: 52.4%
viability, T/C [30]: 22.5%
viability, T/C [31]: 61%
viability, T/C [32]: 64.4%
viability, T/C [33]: 44.6%
viability, T/C [34]: 57.2%
viability, T/C [35]: 45%
viability, T/C [36]: 25.6%

IC50 (second compound 0.0316 µM): > 0.1 µM
IC50 (second compound 0.1 µM): > 0.1 µM
IC50 (second compound 0.316 µM): > 0.1 µM
IC50 (second compound 1 µM): > 0.1 µM
IC50 (second compound 3.16 µM): > 0.1 µM
IC50 (second compound 10 µM): > 0.1 µM
Structure (SMILES): Cn1ncnc1[C@H]1c2n[nH]c(=O)c3cc(F)cc(c23)N[C@@H]1c1ccc(F)cc1 + Cc1nc(NC(=O)N2CCCC2C(N)=O)sc1-c1ccnc(C(C)(C)C(F)(F)F)c1
viability, T/C (second compound 0.0316 µM, first compound 0.000316 µM): 98.7%
viability, T/C (second compound 0.0316 µM, first compound 0.001 µM): 92%
viability, T/C (second compound 0.0316 µM, first compound 0.00316 µM): 113%
viability, T/C (second compound 0.0316 µM, first compound 0.01 µM): 106%
viability, T/C [13]: 94.5%
viability, T/C [14]: 107%
viability, T/C (second compound 0.1 µM, first compound 0.000316 µM): 98%
viability, T/C (second compound 0.1 µM, first compound 0.001 µM): 96.7%
viability, T/C (second compound 0.1 µM, first compound 0.00316 µM): 83.2%
viability, T/C (second compound 0.1 µM, first compound 0.01 µM): 101%
viability, T/C [19]: 91.7%
viability, T/C [20]: 93%
viability, T/C (second compound 0.316 µM, first compound 0.000316 µM): 81.4%
viability, T/C (second compound 0.316 µM, first compound 0.001 µM): 109%
viability, T/C (second compound 0.316 µM, first compound 0.00316 µM): 82.4%
viability, T/C (second compound 0.316 µM, first compound 0.01 µM): 102%
viability, T/C [25]: 87%
viability, T/C [26]: 71.2%
viability, T/C (second compound 1 µM, first compound 0.000316 µM): 83.2%
viability, T/C (second compound 1 µM, first compound 0.001 µM): 86.4%
viability, T/C (second compound 1 µM, first compound 0.00316 µM): 101%
viability, T/C (second compound 1 µM, first compound 0.01 µM): 82.6%
viability, T/C [31]: 78.4%
viability, T/C [32]: 79.5%
viability, T/C (second compound 3.16 µM, first compound 0.000316 µM): 78.4%
viability, T/C (second compound 3.16 µM, first compound 0.001 µM): 78.7%
viability, T/C (second compound 3.16 µM, first compound 0.00316 µM): 85.8%
viability, T/C (second compound 3.16 µM, first compound 0.01 µM): 72.5%
viability, T/C (second compound 3.16 µM, first compound 0.0316 µM): 82.8%
viability, T/C (second compound 3.16 µM, first compound 0.1 µM): 91.3%
viability, T/C (second compound 10 µM, first compound 0.000316 µM): 57.9%
viability, T/C (second compound 10 µM, first compound 0.001 µM): 64.8%
viability, T/C (second compound 10 µM, first compound 0.00316 µM): 73.3%
viability, T/C (second compound 10 µM, first compound 0.01 µM): 60.8%
viability, T/C (second compound 10 µM, first compound 0.0316 µM): 72.7%
viability, T/C (second compound 10 µM, first compound 0.1 µM): 60.8%

IC50 (second compound 0.00316 µM): 3.41 µM
IC50 (second compound 0.01 µM): 3.24 µM
IC50 (second compound 0.0316 µM): 1.7 µM
IC50 (second compound 0.1 µM): 0.696 µM
IC50 (second compound 0.316 µM): < 0.0316 µM
IC50 (second compound 1 µM): < 0.0316 µM
Structure (SMILES): Cn1ncc(Cl)c1-c1cc(C(=O)NC(CN)Cc2cccc(F)c2)sc1Cl (stereo unspecified) + COc1c(OCCCN2CCOCC2)ccc2c3n(c(=NC(=O)c4cnc(N)nc4)nc12)CCN3
viability, T/C [1]: 89.1%
viability, T/C [2]: 109%
viability, T/C [3]: 75.5%
viability, T/C [4]: 76.2%
viability, T/C [5]: 46.4%
viability, T/C [6]: 43%
viability, T/C [7]: 88.9%
viability, T/C [8]: 76.7%
viability, T/C [9]: 87.8%
viability, T/C [10]: 75.5%
viability, T/C [11]: 50.6%
viability, T/C [12]: 32%
viability, T/C [13]: 90.3%
viability, T/C [14]: 74.6%
viability, T/C [15]: 76.2%
viability, T/C [16]: 58.6%
viability, T/C [17]: 38.9%
viability, T/C [18]: 26.5%
viability, T/C [19]: 59.4%
viability, T/C [20]: 65.7%
viability, T/C [21]: 64.5%
viability, T/C [22]: 43.5%
viability, T/C [23]: 27.9%
viability, T/C [24]: 21.1%
viability, T/C [25]: 44.9%
viability, T/C [26]: 38.8%
viability, T/C [27]: 32.9%
viability, T/C [28]: 31.6%
viability, T/C [29]: 21.1%
viability, T/C [30]: 14.1%
viability, T/C [31]: 20.8%
viability, T/C [32]: 18.2%
viability, T/C [33]: 19.9%
viability, T/C [34]: 20.5%
viability, T/C [35]: 15.9%
viability, T/C [36]: 12.5%
